In patent publication US20040049072A1, “RXR modulators with improved pharmacologic profile” (priority 1999, published 2004):
pEC50, pIC50, pKi: −log10 of the molar value. Entries after “also recorded” stand apart in the source; their conditions may differ. Read-outs that look alike come from different tables or passages of the source.

What was measured:
[1] = target: T1, RXRα:RAR heterodimer (Homo sapiens, UniProt P19793); test: RXR:RAR heterodimer co-transfection assay in CV-1 cells; type: cell-based
T1 construct: expressed in transfected cells; host or cells: CV-1 cells
T1 sequence (P19793 1-462): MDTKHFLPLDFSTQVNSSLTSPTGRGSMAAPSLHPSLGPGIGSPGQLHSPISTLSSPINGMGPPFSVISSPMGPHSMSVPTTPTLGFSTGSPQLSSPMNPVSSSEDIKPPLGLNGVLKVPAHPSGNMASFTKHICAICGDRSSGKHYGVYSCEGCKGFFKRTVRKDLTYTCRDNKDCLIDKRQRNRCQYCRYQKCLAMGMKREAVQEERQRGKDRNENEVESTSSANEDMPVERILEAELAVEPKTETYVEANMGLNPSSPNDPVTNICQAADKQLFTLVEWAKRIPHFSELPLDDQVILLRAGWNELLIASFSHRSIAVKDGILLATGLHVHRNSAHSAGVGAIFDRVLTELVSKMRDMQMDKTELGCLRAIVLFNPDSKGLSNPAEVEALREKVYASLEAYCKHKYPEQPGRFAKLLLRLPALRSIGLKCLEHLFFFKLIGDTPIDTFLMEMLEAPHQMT
Protocol: For determination of agonist activity in the context of the RXR:RAR heterodimer or the RXR:PPARγ heterodimer, media containing compounds of the present invention in concentrations ranging from 10^−10 to 10^−5 M were added to the cells.
Compounds of the present invention were also tested for the ability to synergize with a PPARγ agonist in the context of an RXR heterodimer. […] Efficacy of the compounds of the present invention in the agonist and synergy assays was calculated as the maximum response obtained over the range of the dose response curve relative to the maximum response obtained by the reference agonist. Antagonist efficacy was determined as a function (%) of maximal inhibition.
However, when RAR is occupied, typical RXR agonists activate the heterodimer. […] To examine the effects of the compounds of the present invention on the transcriptional properties of the RXR:RAR heterodimer, a heterodimer cotransfection assay as described above was employed.

[2] = target: T2, RXRα homodimer (RXR:RXR) (Homo sapiens, UniProt P19793); test: RXR homodimer co-transfection assay in CV-1 cells; type: cell-based; conditions: for activity on the RXR:RXR homodimer: cotransfection assay; for RXR:RXR CV-1 (%) Antag.: maximal repression (100%) in presence of 32 nM LGD1069; for RXR:RXR CV-1 (%) Ag.: maximal response relative to ATRA; for pEC50 / pIC50: not calculated if efficacy <10%; for pEC50: read-out: RXRα Homodimer Cotransfection Assay Agonist EC50; for pIC50: in presence of LGD1069, read-out: RXRα Homodimer Cotransfection Assay Antagonist IC50
T2 sequence (P19793 1-462): T1 sequence (P19793 1-462)
Description: In the co-transfection assay, cloned cDNA for one or more IRs (e.g., human RARα, RXRα, or PPARγ), alone or in combination (i.e. for heterodimer assays) under the control of a constitutive promoter (e.g., the SV 40, RSV or CMV promoter) is introduced by transfection (a procedure to introduce exogenous genes into cells) into a background cell substantially devoid of endogenous IRs. These introduced gene(s) direct the recipient cells to make the IR protein(s) of interest. A further gene is also introduced (co-transfected) into the same cells in conjunction with the IR gene(s). This further gene, comprising the cDNA for a reporter protein, such as firefly luciferase (LUC), controlled by an appropriate hormone responsive promoter containing a hormone response element (HRE). This reporter plasmid functions as a reporter for the transcriptional-modulating activity of the target IR(s). Thus, the reporter acts as a surrogate for the products (mRNA then protein) normally expressed by a gene under control of the target receptor(s) and their native hormone(s).
Exposing the transfected cells to an agonist ligand compound increases reporter activity in the transfected cells. This activity can be conveniently measured, e.g., by increasing luciferase production and enzymatic activity, which reflects compound-dependent, IR-mediated increases in reporter transcription. […] Increasing concentrations of an antagonist will decrease the reporter signal (e.g., luciferase production). The co-transfection assay is therefore useful to detect both agonists and antagonists of specific IRs. Furthermore, it determines not only whether a compound interacts with a particular IR, but whether this interaction mimics (agonizes) or blocks (antagonizes) the effects of native or synthetic regulatory molecules on target gene expression, as well as the specificity and strength of this interaction.
The receptor expression plasmid was cotransfected along with a reporter plasmid at 50 ng/well, the internal control plasmid pRS-β-Gal at 50 ng/well and filler DNA, pGEM, at 90 ng/well.
Six hours after transfection, media was removed and the cells were washed with phosphate-buffered saline (PBS). Media containing compounds of the present invention in concentrations ranging from 10^−10 to 10^−5 M were added to the cells. […] Retinoids were dissolved in dimethylsulfoxide for use in the transcriptional activation assays. Two to three replicates were used for each sample. Transfections and subsequent procedures were performed on a Biomek 1000 automated workstation.
After 40 hours, the cells were washed with PBS, lysed with a detergent-based buffer and assayed for LUC and β-Gal activities using a luminometer or spectrophotometer, respectively. For each replicate, the normalized response (NR) was calculated as: […]
The mean and standard error of the mean (SEM) of the NR were calculated. Data were plotted as the response of the compound compared to the reference compounds over the range of the dose-response curve. […] Antagonist activity was determined by testing the amount of LUC expression in the presence of the RXR agonists described above at the EC50 concentration for such known compounds. […] In addition, the efficacy of antagonists was determined as a function (%) of maximal inhibition.

[3] = target: T3, RXRα (Homo sapiens, UniProt P19793); test: RXRα binding (competition with tritiated LGD1069)
T3 sequence (P19793 1-462): T1 sequence (P19793 1-462)
Protocol: Non-specific binding was defined as that binding remaining in the presence of 500 nM of the appropriate unlabelled compound. At the end of the incubation period, bound ligand was separated from free. The amount of bound tritiated retinoid was determined by liquid scintillation counting of an aliquot (700 μL) of the supernatant fluid or the hydroxylapatite pellet.
After correcting for non-specific binding, IC50 values were determined. […] The IC50 value was determined graphically from a log-logit plot of the data. The Ki values were determined by application of the Cheng-Prussof equation to the IC50 values, the labeled ligand concentration and the Kd of the labeled ligand.

[4] = CV-1, read-out: RXR:RAR CV-1 (%) Ag.
[5] = CV-1, read-out: RXRα:RAR Heterodimer Cotransfection Assay Agonist Efficacy (%)
[6] = maximal repression (100%) in presence of 10 nM TTNPB
[7] = relative to maximal repression (100%) in presence of 10 nM TTNPB
[8] = Table 3 c4, in presence of 3.2×10^−8 M LGD1069
[9] = Table 3, mean of n > 3, read-out: RXRα Binding Ki
[10] = from IC50 by Cheng-Prussof equation, tritiated LGD1069, read-out: Bind RXRα Ki

SMILES: COc1c(/C(C)=C/C=C/C(C)=C/C(=O)O)cc(C(C)(C)C)cc1C(C)(C)C [Compound L1]
- Emax [1, 4]: 21%
- Emax [1, 5]: 21%
- agonist activity on the RXR:RAR heterodimer ([1]; compound alone): weak agonist activity alone
- RXR:RAR CV-1 (%) Antag. [1, 6]: 19%
- RXRα:RAR Heterodimer Cotransfection Assay Antagonist Efficacy (%) [1, 7]: 19%
- RXRα Homodimer Cotransfection Assay Agonist Efficacy (%) ([2]; Table 3 c2, mean of n > 3): 62%
- RXRα Homodimer Cotransfection Assay Agonist Efficacy (%) [2, 8]: 7%
- activity on the RXR:RXR homodimer [2]: full RXR homodimer agonists; also recorded: agonist activity similar in efficacy and potency to the known RXR agonist, LG100268
- RXR:RXR CV-1 (%) Antag. [2]: 7%
- RXR:RXR CV-1 (%) Ag. [2]: 62%
- pEC50 [2]: 7.48
- pKi [3, 9]: 8.96
- pKi [3, 10]: 8.96

SMILES: CCCOc1c(/C(C)=C/C=C/C(C)=C/C(=O)O)cc(C(C)(C)C)cc1C(C)(C)C [Compound L3]
- Emax [1, 4]: 5%
- Emax [1, 5]: 5%
- antagonist activity on the RXR:RAR heterodimer ([1]; antagonist assay): significant RXR:RAR antagonist activity
- RXR:RAR antagonist activity relative to L2 ([1]; comparison of L3 with L2): approximately twice the RXR:RAR antagonist activity as L2
- agonist activity on the RXR:RAR heterodimer ([1]; compound alone): not active as RXR:RAR agonists
- RXR:RAR CV-1 (%) Antag. [1, 6]: 84%
- RXRα:RAR Heterodimer Cotransfection Assay Antagonist Efficacy (%) [1, 7]: 84%
- RXRα Homodimer Cotransfection Assay Agonist Efficacy (%) ([2]; Table 3 c2, mean of n > 3): 2%
- RXRα Homodimer Cotransfection Assay Agonist Efficacy (%) [2, 8]: 90%
- activity on the RXR:RXR homodimer [2]: highly efficacious and potent antagonist activity with little or no agonist activity
- pIC50 [2]: 8.30
- RXR:RXR CV-1 (%) Antag. [2]: 90%
- RXR:RXR CV-1 (%) Ag. [2]: 2%
- pKi [3, 9]: 8.96
- pKi [3, 10]: 9.00

SMILES: CCCCCCCOc1c(/C(C)=C/C=C/C(C)=C/C(=O)O)cc(C(C)(C)C)cc1C(C)(C)C [Compound L5]
- Emax ([1]; CV-1; read-out: RXR:RAR CV-1 (%) Ag.): 5%
- Emax ([1]; CV-1; read-out: RXRα:RAR Heterodimer Cotransfection Assay Agonist Efficacy (%)): 5%
- antagonist activity on the RXR:RAR heterodimer ([1]; antagonist assay): significant RXR:RAR antagonist activity
- agonist activity on the RXR:RAR heterodimer ([1]; compound alone): not active as RXR:RAR agonists
- RXR:RAR CV-1 (%) Antag. [1, 6]: 68%
- RXRα:RAR Heterodimer Cotransfection Assay Antagonist Efficacy (%) [1, 7]: 68%
- RXRα Homodimer Cotransfection Assay Agonist Efficacy (%) ([2]; Table 3 c2, mean of n > 3): 0%
- RXRα Homodimer Cotransfection Assay Agonist Efficacy (%) [2, 8]: 94%
- activity on the RXR:RXR homodimer [2]: full antagonists; also recorded: highly efficacious and potent antagonist activity with little or no agonist activity
- pIC50 [2]: 8.00
- RXR:RXR CV-1 (%) Antag. [2]: 94%
- RXR:RXR CV-1 (%) Ag. [2]: 0%
- pKi [3, 9]: 9.22
- pKi [3, 10]: 9.22

SMILES: CCOc1c(/C(C)=C/C=C/C(C)=C/C(=O)O)cc(C(C)(C)C)cc1C(C)(C)C [Compound L2]
- Emax [1, 4]: 6%
- Emax [1, 5]: 6%
- agonist activity on the RXR:RAR heterodimer ([1]; compound alone): not active in the RXR:RAR assay
- RXR:RAR CV-1 (%) Antag. [1, 6]: 49%
- RXRα:RAR Heterodimer Cotransfection Assay Antagonist Efficacy (%) [1, 7]: 49%
- RXRα Homodimer Cotransfection Assay Agonist Efficacy (%) ([2]; Table 3 c2, mean of n > 3): 11%
- RXRα Homodimer Cotransfection Assay Agonist Efficacy (%) [2, 8]: 62%
- activity on the RXR:RXR homodimer [2]: partial agonist
- pIC50 [2]: 8.05
- RXR:RXR CV-1 (%) Antag. [2]: 62%
- RXR:RXR CV-1 (%) Ag. [2]: 11%
- pEC50 [2]: 7.85
- pKi [3, 9]: 7.89
- pKi [3, 10]: 7.89

SMILES: CCCCOc1c(/C(C)=C/C=C/C(C)=C/C(=O)O)cc(C(C)(C)C)cc1C(C)(C)C [Compound L4]
- Emax [1, 4]: 2%
- Emax [1, 5]: 2%
- antagonist activity on the RXR:RAR heterodimer ([1]; antagonist assay): significant RXR:RAR antagonist activity
- agonist activity on the RXR:RAR heterodimer ([1]; compound alone): not active as RXR:RAR agonists
- RXR:RAR CV-1 (%) Antag. [1, 6]: 88%
- RXRα:RAR Heterodimer Cotransfection Assay Antagonist Efficacy (%) [1, 7]: 88%
- RXRα Homodimer Cotransfection Assay Agonist Efficacy (%) ([2]; Table 3 c2, mean of n > 3): 1%
- RXRα Homodimer Cotransfection Assay Agonist Efficacy (%) [2, 8]: 92%
- activity on the RXR:RXR homodimer [2]: highly efficacious and potent antagonist activity with little or no agonist activity
- pIC50 [2]: 8.05
- RXR:RXR CV-1 (%) Antag. [2]: 92%
- RXR:RXR CV-1 (%) Ag. [2]: 1%
- pKi [3, 9]: 9.05
- pKi [3, 10]: 9.00
